Laboratory results: patent US12606795B2 (Thankcome Biological Science and Technology (SuZhou) Co., …, priority 2023, dated 2026)
Marks after values point to notes of the source that are not given here.

Tests used:
[1] = system: SPF Kunming mice; assay: Acute toxicity in mice; type: in vivo; settings: for Granulocyte number GR# / Granulocyte percentage GR % / Hematocrit HCT / Hemoglobin HGB / Lymphocyte number Lym# / Lymphocyte percentage Lym % / Mean corpuscular hemoglobin MCH / Mean corpuscular volume MCV / Mean corpuscular-hemoglobin concentration MCHC / Mean platelet volume MPV / Middle cell number Mid# / Middle cell percentage Mid % / Platelet distribution PDW / Platelet-large cell count PLCC / Platelet-large cell ratio PLCR / Plateletcrit PCT / Platelets PLT / Red blood cell distribution width coefficient of variation RDW_CV / Red blood cell distribution width standard deviation RDW_SD / Red blood cells RBC / While blood cells WBC: acute toxicity
Description: The groups were recorded as a sodium chloride solution group, a low dosage group, a medium dosage group and a high dosage group, respectively, and the general conditions and the body weight were observed per day within 7 to 10 d. At the end of the experimental period, blood samples were collected for hematological and serum biochemical analysis (refer to Embodiment 4). A histopathological examination of major organs and tissue was performed on all animals in each group (refer to Embodiment 4).

[2] = system: APP/PS1 double transgenic mice; assay: Alzheimer's disease in APP/PS1 double transgenic mice; type: in vivo
Source text: 20 12-month-old APP/PS1 double transgenic mice (Hangzhou Ziyuan Experimental Animal Technology Co., Ltd., batch MJ0324-058) were randomly divided into two groups: an APP group and an APP+AKK group, with 10 mice in each group. Another 10 littermate wild-type C57 BL/6J mice were taken as blank, which served as a WT group. All mice were given intragastric administration and injection for 30 d at 12-month age (see Table 7 for intragastric administration conditions). After all the experiments ended, blood was collected from the orbital veins of the mice. The mice were sacrificed by cervical dislocation. Part of brain tissue, liver tissue and colon tissue of the mice were taken and placed in 4% paraformaldehyde, and the remaining tissue was placed in an ultra-low temperature freezer at −80° C. for storage.
DDW: Double distilled water.
After administration, a Morris water maze experiment of a 4-day duration was conducted firstly. The water maze consists of a circular pool (with a diameter of 120 cm) and is evenly divided into four quadrants. During the experiment, the mice were moved into a laboratory two hours in advance to acquaint themselves with the environment. The water temperature was adjusted to around 21° C. to 22° C., and then milk was poured into the pool to make the water milky white. D1 to D3 were a training period, during which the mice were gently placed into the water from first, second, third, and fourth quadrants with their faces towards the direction of the pool wall reminders. Swimming trajectories at 1 min were recorded. […] Each mouse was trained once per day per quadrant for 3 consecutive days. D4 was an experimental period, during which a quadrant was randomly selected for each mouse and then the mice were placed in the pool. The time required to find the platform within 60 s, i.e., escape latency, was recorded, and the swimming trajectory of each mouse was recorded with a video acquisition system. If the mouse fail to find the platform within 60 s after entering the water, the escape latency is recorded as 60 s.
A hippocampus was homogenized in 1 mL RIPA (Thermofisher, Waltham, MA, USA) and 10 μL PMSF (Thermofisher), and the homogenized hippocampus was centrifuged at 4° C. at 12000×g for 5 min. Proteins were quantified using a BCA protein assay kit (Thermofisher). A protein sample was mixed with a sample buffer (Thermofisher) in a ratio of 4:1, and the mixture was heated at 95° C. for 5 min. Then the sample was dispensed into gel pores of SDS-PAGE gel and the gel was run at 100 V. Strips on SDS-PAGE gel were transferred onto a PVFD membrane. The PVDF membrane was sealed with 5% skim milk for 1 h, and then the stripes were incubated overnight with a primary antibody (Thermofisher) at 4° C. An antibody (Thermofisher) was added after the membrane was washed and the incubation was performed for 1 h. Images on iBright™ (Thermofisher) were obtained after chemiluminescence was performed using a western ECL substrate (Thermofisher), where the images were used for subsequent analysis.
The hippocampus was taken and homogenized with PBS, and then liquid supernatant was drawn for the experiment. The levels of IL-4 (interleukin-4, Nanjing Jiancheng Biological Engineering Research Institute, product number: H005-1-2), IL-10 (interleukin-10, Nanjing Jiancheng Biological Engineering Research Institute, product number: H009-1-2), CCL2 (chemokine ligand 2, Nanjing Jiancheng Biological Engineering Research Institute, product number: H318-1) and CXCL1 (CXC chemokine ligand 1, Nanjing Jiancheng Biological Engineering Research Institute, product number: H306-1) in the hippocampus were tested by the instruction of the ELISA kit.

[3] = high dosage 5×10^11 CFU/d intragastric for 1 d
[4] = low dosage 1×10^9 CFU/d intragastric for 1 d
[5] = medium dosage 5×10^10 CFU/d intragastric for 1 d
[6] = 1*10^9 CFU/mouse/d intragastric 30 d, vs APP group
[7] = APP+AKK group compared with APP group

Akkermansia muciniphila [AKK PROBIO]
pathological sections of livers and kidneys ([1]; acute): no significant pathological injury
death ([1]; acute intragastric administration, high, medium and low dosage (5×10^11, 5×10^10, 1×10^9 CFU/d)): no death occurs
Granulocyte number GR# [1, 3]: 0 ± 0 10^9/L
Granulocyte percentage GR % [1, 3]: 0 ± 0%
Hematocrit HCT [1, 3]: 7.35 ± 2.76%
Hemoglobin HGB [1, 3]: 110.00 g/L
Lymphocyte number Lym# [1, 3]: 0.54 ± 0.37 10^9/L
Lymphocyte percentage Lym % [1, 3]: 100 ± 0%
Mean corpuscular hemoglobin MCH [1, 3]: 81.55 pg
Mean corpuscular volume MCV [1, 3]: 52.60 fL
Mean corpuscular-hemoglobin concentration MCHC [1, 3]: 1579.00 g/L
Mean platelet volume MPV [1, 3]: 9.20 ± 0.71 fL
Middle cell number Mid# [1, 3]: 0 ± 0 10^9/L
Middle cell percentage Mid % [1, 3]: 0 ± 0%
Platelet distribution PDW [1, 3]: 21.00%
Platelet-large cell count PLCC [1, 3]: 218.50 ± 10^9/L
Platelet-large cell ratio PLCR [1, 3]: 19.70%
Plateletcrit PCT [1, 3]: 1.04 ± 0.40%
Platelets PLT [1, 3]: 1112.50 ± 10^9/L
Red blood cell distribution width coefficient of variation RDW_CV [1, 3]: 13.75%
Red blood cell distribution width standard deviation RDW_SD [1, 3]: 92.55 fL
Red blood cells RBC [1, 3]: 1.38 ± 0.35 10^12/L
While blood cells WBC [1, 3]: 0.54 ± 0.37 10^9/L
Granulocyte number GR# [1, 4]: 0.05 ± 10^9/L
Granulocyte percentage GR % [1, 4]: 3.8%
Hematocrit HCT [1, 4]: 11.70%
Hemoglobin HGB [1, 4]: 87.50 g/L
Lymphocyte number Lym# [1, 4]: 0.82 ± 10^9/L
Lymphocyte percentage Lym % [1, 4]: 95.55%
Mean corpuscular hemoglobin MCH [1, 4]: 45.35 pg
Mean corpuscular volume MCV [1, 4]: 55.90 fL
Mean corpuscular-hemoglobin concentration MCHC [1, 4]: 802.00 g/L
Mean platelet volume MPV [1, 4]: 9.55 fL
Middle cell number Mid# [1, 4]: 0.01 ± 10^9/L
Middle cell percentage Mid % [1, 4]: 0.65%
Platelet distribution PDW [1, 4]: 19.10%
Platelet-large cell count PLCC [1, 4]: 273.50 ± 10^9/L
Platelet-large cell ratio PLCR [1, 4]: 27.65%
Plateletcrit PCT [1, 4]: 0.89%
Platelets PLT [1, 4]: 921.00 ± 10^9/L
Red blood cell distribution width coefficient of variation RDW_CV [1, 4]: 14.85%
Red blood cell distribution width standard deviation RDW_SD [1, 4]: 76.40 fL
Red blood cells RBC [1, 4]: 2.12 ± 10^12/L
While blood cells WBC [1, 4]: 0.88 ± 10^9/L
Granulocyte number GR# [1, 5]: 0.06 ± 10^9/L
Granulocyte percentage GR % [1, 5]: 4.20 ± 5.94%
Hematocrit HCT [1, 5]: 11.70%
Hemoglobin HGB [1, 5]: 96.00 g/L
Lymphocyte number Lym# [1, 5]: 0.99 ± 10^9/L
Lymphocyte percentage Lym % [1, 5]: 95.20%
Mean corpuscular hemoglobin MCH [1, 5]: 49.20 pg
Mean corpuscular volume MCV [1, 5]: 53.05 fL
Mean corpuscular-hemoglobin concentration MCHC [1, 5]: 892.00 g/L
Mean platelet volume MPV [1, 5]: 9.15 ± 0.78 fL
Middle cell number Mid# [1, 5]: 0.01 ± 10^9/L
Middle cell percentage Mid % [1, 5]: 0.60%
Platelet distribution PDW [1, 5]: 20.15%
Platelet-large cell count PLCC [1, 5]: 158.50 ± 10^9/L
Platelet-large cell ratio PLCR [1, 5]: 18.00%
Plateletcrit PCT [1, 5]: 0.84 ± 0.54%
Platelets PLT [1, 5]: 891.50 ± 10^9/L
Red blood cell distribution width coefficient of variation RDW_CV [1, 5]: 13.05%
Red blood cell distribution width standard deviation RDW_SD [1, 5]: 73.40 fL
Red blood cells RBC [1, 5]: 2.28 ± 10^12/L
While blood cells WBC [1, 5]: 1.06 ± 10^9/L
weight of major organs (organ indices) ([1]; acute, heart, liver, spleen, kidneys, thymus, brain, testes, lungs, stomach, intestine, vs control group): substantially no significant difference
activity of glutamic oxalacetic transaminase (GOT) in both serum and liver ([1]; acute, vs control group): no significant difference
activity of glutamic pyruvate transaminase (GPT) in both serum and liver ([1]; acute, vs control group): no significant difference
concentration of blood urea nitrogen (BUN) in serum ([1]; acute, vs control group): no significant difference
content of creatinine (GRE) in serum ([1]; acute, vs control group): no significant difference
level of glucose (GLU) in both serum and liver ([1]; acute, vs control group): no significant difference
level of the bile acid in both serum and liver ([1]; acute, vs control group): no significant difference
level of the cholesterol in both serum and liver ([1]; acute, vs control group): no significant difference
level of total protein (TP) in both serum and liver ([1]; acute, vs control group): no significant difference
level of the triglyceride in serum ([1]; acute, vs control mice): no significant difference
changes of blood glucose per day ([1]; acute, vs control saline group): no significant difference
changes of body weight per day ([1]; acute, vs control saline group): no significant difference
changes of food intake per day ([1]; acute, vs control saline group): no significant difference
level of triglyceride in the liver ([1]; acute, vs control saline group): significantly lower
various blood indicators ([1]; acute, vs control saline group): no significant difference
escape latency (Morris water maze) [2, 6]: shortened
path to finding the platform (Morris water maze) [2, 6]: significantly shortened
levels of CXCL1 and CCL2 [2, 7]: declining trend
levels of IL-4 and IL-10 [2, 7]: rising trend
Hippocampus IL-4 ([2]; APP/PS1 mice, 1*10^9 CFU/mouse/d 30 d, APP group 54.73, WT 410.91): 210.90 ± 19.77^c
Hippocampus CCL2 ([2]; APP/PS1 mice, 1*10^9 CFU/mouse/d 30 d, APP group 159.11, WT 103.32): 123.20 ± 0.50^b
Hippocampus Aβ ([2]; APP/PS1 mice, 1*10^9 CFU/mouse/d 30 d, APP group 348.45, WT 59.23): 185.15 ± 9.07^b
Hippocampus IL-10 ([2]; APP/PS1 mice, 1*10^9 CFU/mouse/d 30 d, APP group 1035.86, WT 3373.80): 2516.88 ± 91.80^c
Hippocampus CXCL1 ([2]; APP/PS1 mice, 1*10^9 CFU/mouse/d 30 d, APP group 1217.20, WT 355.37): 653.77 ± 15.44^b
